Measurements: patent US20260125346A1, “Isoquinolinone Derivatives and 4H-Quinolizinone Derivatives and Pharmaceutical Compositions Thereof for the Treatment of Disease” (BeOne Medicines I GmbH, priority 2023, published 2026)

What was measured:
[1] = target: PI3Kα (p110/p85) kinase (wild type, "WT") (Homo sapiens, UniProt P42336); test: PI3Kα (p110/p85) kinase ADP-Glo Assay; assay type: biochemical; details: 25 uM ATP
Procedure: PI3Kα (p110/p85) kinase ADP-Glo Assay. Certain compounds disclosed herein were tested for inhibition of PI3Kα (p110/p85) kinase (wild type, “WT”) in assays based on the ADP-Glo™ Kinase Assay methodology. The assays were carried out in 384-well white plates in a reaction mixture containing PI3Kα (p110/p85) kinase, 25 µM ATP, 5.35 µg/mL PI(4,5)P2:PS Lipid Kinase Substrate and […] compound in buffer containing 50 mM HEPES pH7.5, 50 mM NaCl, 3 mM MgCl2, 0.0025% BSA and 2 mM DTT. PI3Kα (p110/p85) kinase was incubated with Lipid Kinase Substrate and compound for 30 minutes at room temperature and the reaction was initiated by the addition of ATP. After reaction at room temperature for 120 minutes, ADP-Glo™ reagents were added to terminate the kinase reaction and deplete the remaining ATP according to the manufacture's instruction (Promega Corporation). After incubation at room temperature for 1 hour, Kinase Detection Reagent (prepared by reconstituting the lyophilized Kinase Detection Substrate with Kinase Detection Buffer of the kit) was added to convert the ADP to ATP and to allow for the newly synthesized ATP to be measured using a luciferase/luciferin reaction. After incubation at room temperature for 0.5 hour, chemiluminescence signals were recorded on a PHERAstar FSX plate reader (BMG Labtech). The chemiluminescence generated in this assay correlates to the amount of ADP generated in the kinase assay, indicating kinase activity. […] The IC50 for each compound was derived from fitting the data to the four-parameter logistic equation by Dotmatics.

[2] = target: PI3Kα (p110[H1047R]/p85) kinase (Homo sapiens, UniProt P42336, H1047R); test: PI3Kα (p110[H1047R]/p85) kinase ADP-Glo Assay; assay type: biochemical; details: 25 uM ATP; for selectivity: WT/H1047R: ADP-Glo Assay IC50 ratio
Sequence of PI3Kα (p110[H1047R]/p85) kinase (P42336 whole entry H1047R): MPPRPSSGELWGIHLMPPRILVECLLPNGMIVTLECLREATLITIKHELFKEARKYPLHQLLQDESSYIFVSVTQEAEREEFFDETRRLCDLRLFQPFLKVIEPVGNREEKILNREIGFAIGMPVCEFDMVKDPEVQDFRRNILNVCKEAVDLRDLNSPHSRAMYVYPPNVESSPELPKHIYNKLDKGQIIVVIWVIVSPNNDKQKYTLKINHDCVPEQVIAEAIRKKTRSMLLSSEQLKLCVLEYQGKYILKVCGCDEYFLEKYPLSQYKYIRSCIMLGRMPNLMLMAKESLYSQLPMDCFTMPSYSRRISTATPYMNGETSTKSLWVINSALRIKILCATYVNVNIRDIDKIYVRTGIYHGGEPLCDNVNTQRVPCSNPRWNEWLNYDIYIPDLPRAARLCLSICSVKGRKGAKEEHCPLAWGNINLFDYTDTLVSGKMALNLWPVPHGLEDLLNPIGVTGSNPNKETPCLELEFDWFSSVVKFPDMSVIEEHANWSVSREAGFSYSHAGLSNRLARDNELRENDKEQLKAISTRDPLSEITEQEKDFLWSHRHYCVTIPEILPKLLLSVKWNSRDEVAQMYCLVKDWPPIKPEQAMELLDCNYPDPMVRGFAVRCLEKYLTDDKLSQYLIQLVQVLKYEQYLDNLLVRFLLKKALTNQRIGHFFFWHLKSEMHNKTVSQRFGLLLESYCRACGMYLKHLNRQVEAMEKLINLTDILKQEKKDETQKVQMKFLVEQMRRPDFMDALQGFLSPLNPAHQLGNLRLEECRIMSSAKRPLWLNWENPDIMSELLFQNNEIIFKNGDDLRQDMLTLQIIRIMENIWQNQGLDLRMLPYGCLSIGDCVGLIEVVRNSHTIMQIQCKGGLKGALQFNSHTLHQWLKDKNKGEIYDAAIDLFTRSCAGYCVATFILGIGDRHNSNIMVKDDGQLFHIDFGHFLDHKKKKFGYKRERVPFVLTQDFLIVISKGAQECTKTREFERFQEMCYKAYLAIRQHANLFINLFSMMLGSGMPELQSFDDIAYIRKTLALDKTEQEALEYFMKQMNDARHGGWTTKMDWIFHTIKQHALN
Sequence of PI3Kα (p110[H1047R]/p85) kinase (P27986 whole entry partner): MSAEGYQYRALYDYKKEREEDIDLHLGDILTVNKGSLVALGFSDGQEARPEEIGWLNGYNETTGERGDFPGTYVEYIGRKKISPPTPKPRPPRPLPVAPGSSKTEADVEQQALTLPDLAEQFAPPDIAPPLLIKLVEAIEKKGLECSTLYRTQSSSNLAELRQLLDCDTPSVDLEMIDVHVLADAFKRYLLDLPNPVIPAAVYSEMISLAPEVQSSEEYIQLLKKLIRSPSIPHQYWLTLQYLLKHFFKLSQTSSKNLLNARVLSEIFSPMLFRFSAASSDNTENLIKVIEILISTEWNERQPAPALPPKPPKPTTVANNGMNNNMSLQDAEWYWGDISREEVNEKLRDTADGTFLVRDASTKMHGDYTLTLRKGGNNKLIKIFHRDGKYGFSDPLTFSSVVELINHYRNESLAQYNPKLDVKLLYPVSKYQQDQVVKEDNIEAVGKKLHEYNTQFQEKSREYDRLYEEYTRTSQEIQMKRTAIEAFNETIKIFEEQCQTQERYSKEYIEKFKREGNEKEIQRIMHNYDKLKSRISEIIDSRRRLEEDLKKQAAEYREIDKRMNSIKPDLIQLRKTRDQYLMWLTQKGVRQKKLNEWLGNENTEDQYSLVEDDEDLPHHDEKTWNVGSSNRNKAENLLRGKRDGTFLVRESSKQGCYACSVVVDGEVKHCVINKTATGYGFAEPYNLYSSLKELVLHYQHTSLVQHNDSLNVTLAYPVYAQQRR
Procedure: PI3Kα (p110[H1047R]/p85) kinase ADP-Glo Assay. Certain compounds disclosed herein were tested for inhibition of PI3Kα (p110[H1047R]/p85) kinase in assays based on the ADP-Glo™ Kinase Assay methodology. The assays were carried out in 384-well white plates in a reaction mixture containing PI3Kα (p110[H1047R]/p85) kinase, 25 µM ATP, 5.35 µg/ml PI(4,5)P2:PS Lipid Kinase Substrate and […] compound in buffer containing 50 mM HEPES pH7.5, 50 mM NaCl, 3 mM MgCl2, 0.0025% BSA and 2 mM DTT. PI3Kα (p110[H1047R]/p85) kinase was incubated with Lipid Kinase Substrate and compound for 30 minutes at room temperature and the reaction was initiated by the addition of ATP.
After reaction at room temperature for 120 minutes, ADP-Glo™ reagents were added to terminate the kinase reaction and deplete the remaining ATP according to the manufacture's instruction (Promega Corporation). After incubation at room temperature for 1 hour, Kinase Detection Reagent (prepared by reconstituting the lyophilized Kinase Detection Substrate with Kinase Detection Buffer of the kit) was added to convert the ADP to ATP and to allow for the newly synthesized ATP to be measured using a luciferase/luciferin reaction. After incubation at room temperature for 0.5 hour, chemiluminescence signals were recorded on a PHERAstar FSX plate reader (BMG Labtech). The chemiluminescence generated in this assay correlates to the amount of ADP generated in the kinase assay, indicating kinase activity. […] The IC50 for each compound was derived from fitting the data to the four-parameter logistic equation by Dotmatics.

WT cell line SK-BR-3 = test: Phospho-AKT (Ser473) Inhibition Assay (HTRF), SK-BR-3; assay type: cell-based; details: Homo sapiens; SK-BR-3, 1 hour treatment; read-out: p-AKT Inhibition assay (S473) IC50 SK-BR-3
Procedure: The SK-BR-3 (ATCC, HTB-30) cell line was obtained from the American Type Culture Collection. Cells were maintained in McCoy' 5A medium (Gibco, REF #16600108) supplemented with 10% Fetal Bovine Serum. Cultures were maintained in a humidified incubator at 37° C. under 5% CO2/95% air.
(§1) Phospho-AKT Inhibition Assay. HTRF Phospho-AKT (Ser473) detection kit (Cisbio, REF #64AKSPEH) was used in phosphor-AKT inhibition assay. For compound screening, PI3Kα H1047R mutated cell line T-47D and WT cell line SK-BR-3 cells were seeded at a density of 3×10^4 cells per well in 96 well plate (Costar, REF #3599) in 95 μL of assay medium (MEM medium (Gibco, REF #12561-056) with 1×NEAA (Gibco, REF #11140-050), 1 mM sodium pyruvate (Gibco, REF #11360-070), and 1 g/ml human insulin (Topscience, REF #T8221)), overnight. Compounds dissolved in 10 mM stock solutions in DMSO were serially diluted 1:3 in DMSO to generate an 11-point dilution series and plated using an INTEGRA ASSIST PLUS pipetting robot. A 20× intermediate compound dilution plate in RPMI1640 medium (200 M starting compound concentration in 2% DMSO) was then prepared. Five μL of intermediate serially diluted compounds were added to the cell plate to final concentrations ranging from […] to 0.1 nM in 0.1% DMSO. 0.1% DMSO alone was used to establish the maximum signal and GDC0077 at final concentration of 10 μM was used as a reference compound for minimum signal. After 1 hour treatment, removed medium and added 50 μL of supplemented lysis buffer (1×) immediately. Incubated for at least 30 minutes at room temperature under shaking. Transferred 16 μL of cell lysate from the 96-well cell-culture plate to a 384-white detection plate (PerkinElmer, Optiplate 384, 6007299). Added 4 μL of premixed antibody solutions prepared in the detection buffer. Incubated 4 hours at room temperature in dark. The plates were read on PHERAstar FSX Microplate reader (BMG LABTECH, Inc.) using standard HTRF settings.
(§2) Relative IC50 values were determined using luminescence units by calculating percent inhibition with respect to the in-plate “MIN” (GDC0077 reference control) and “MAX” (DMSO) controls. The data were analyzed using a 4-parameter nonlinear logistic equation (four-parameter logistic concentration-response curve): Y=bottom+[(top−bottom)/1+(X/IC50) slope] • where Y=% inhibition, X=concentration of inhibitor, bottom=minimum value of y attained by curve-fit, top=maximum value of y attained by curve-fit and slope=steepness of curve at the IC50.

[3] = test system: PI3Kα H1047R mutated cell line T-47D; test: Phospho-AKT (Ser473) Inhibition Assay (HTRF), T-47D; assay type: cell-based; details: for IC50: Homo sapiens, T47D, T-47D, 1 hour treatment, read-out: p-AKT Inhibition assay (S473) IC50 T-47D; for Selectivity: SK-BR-3/T-47D (p-AKT): p-AKT (S473) IC50 ratio
Procedure: Cell Culture Maintenance. The T-47D (ATCC, HTB-133) cell line was obtained from the American Type Culture Collection. Cells were maintained in RPMI1640 medium (Gibco, REF #22400105) supplemented with 10% Fetal Bovine Serum (Gibco, REF #10091148). Cultures were maintained in a humidified incubator at 37° C. under 5% CO2/95% air.
as §1, §2

Sequence of PI3Kα (p110/p85) kinase (wild type, "WT") (P42336 whole entry): as the sequence (P42336 whole entry H1047R) above, with R1047H counted along it
Sequence of PI3Kα (p110/p85) kinase (wild type, "WT") (P27986 whole entry partner): as the sequence (P27986 whole entry partner) above

IC50 [1] | IC50 [2] | selectivity: WT/H1047R [2] | IC50 (WT cell line SK-BR-3) | IC50 [3] | Structure (SMILES) | Selectivity: SK-BR-3/T-47D (p-AKT) [3]
3.8 µM | 0.26 µM | 15 | 2.7 µM | 0.107 µM | Cc1cc(C(C)Nc2ccccc2C(=O)O)c2cc(-c3cnn(-c4cccc(C#N)c4)c3)n(C)c(=O)c2c1 (stereo not shown) [Example 29, 2-((1-(3-(1-(3-cyanophenyl)-1H-pyrazol-4-yl)-2,7-dimethyl-1-oxo-1,2-dihydroisoquinolin-5-yl)ethyl)amino)benzoic acid] | 25
61 µM | 7.18 µM | 8.5 | 3.23 µM | > 10 µM | Cc1cc([C@H](C)Nc2ccccc2C(=O)O)c2cc(-c3ccc(-c4cnn(C)c4)cc3)n(C)c(=O)c2c1 [Example 41, (S)-2-((1-(2,7-dimethyl-3-(4-(1-methyl-1H-pyrazol-4-yl)phenyl)-1-oxo-1,2-dihydroisoquinolin-5-yl)ethyl)amino)benzoic acid] | –
55.5 µM | 0.485 µM | 114.5 | > 10 µM | 6.75 µM | Cc1cc(C(C)Nc2c(C(=O)O)nn3c2CCC3)c2cc(-c3ccccc3)n(C)c(=O)c2c1 (stereo not shown) [Example 83, 3-((1-(2,7-dimethyl-1-oxo-3-phenyl-1,2-dihydroisoquinolin-5-yl)ethyl)amino)-5,6-dihydro-4H-pyrrolo[1,2-b]pyrazole-2-carboxylic acid] | >1.48
26.8 µM | 1.1 µM | 24.3 | > 10 µM | > 10 µM | Cc1cc(C(C)Nc2ccccc2C(=O)O)c2cc(-c3cnc(O)nc3)n(C)c(=O)c2c1 (stereo not shown) [Example 85, 2-((1-(3-(2-hydroxypyrimidin-5-yl)-2,7-dimethyl-1-oxo-1,2-dihydroisoquinolin-5-yl)ethyl)amino)benzoic acid] | –
